Experimental data as given in the CheMixHub ionic liquid set.

Test: xn = mol fraction of the nth substance listed
Conditions: 101 kPa

Cc1ncc(C[n+]2csc(CCO)c2C)c(N)n1.Cl.[Cl-] + CCCCCCCCCCCCOS(=O)(=O)[O-].[Na+] + O
electrical conductivity [S/m]
Conditions | 308.15 K | 318.15 K
x2 = 0, x1 = 1.8e-07 | 0.00293 | 0.00286
x2 = 0, x1 = 9e-07 | 0.00544 | 0.00608
x2 = 0, x1 = 1.8e-06 | 0.00836 | 0.00964
x2 = 7.35e-06, x1 = 1.8e-07 | 0.00693 | 0.00698
x2 = 7.35e-06, x1 = 9e-07 | 0.00954 | 0.0104
x2 = 7.35e-06, x1 = 1.8e-06 | 0.0129 | 0.0147
x2 = 1.463e-05, x1 = 1.8e-07 | 0.0109 | 0.0112
x2 = 1.463e-05, x1 = 9e-07 | 0.0135 | 0.0145
x2 = 1.463e-05, x1 = 1.8e-06 | 0.0172 | 0.0195
x2 = 2.18e-05, x1 = 1.8e-07 | 0.0147 | 0.0153
x2 = 2.18e-05, x1 = 9e-07 | 0.0175 | 0.0186
x2 = 2.18e-05, x1 = 1.8e-06 | 0.0213 | 0.0241
x2 = 2.901e-05, x1 = 1.8e-07 | 0.0186 | 0.0195
x2 = 2.901e-05, x1 = 9e-07 | 0.0215 | 0.0226
x2 = 2.901e-05, x1 = 1.8e-06 | 0.0254 | 0.0286
x2 = 3.604e-05, x1 = 1.8e-07 | 0.0224 | 0.0235
x2 = 3.604e-05, x1 = 9e-07 | 0.0254 | 0.0266
x2 = 3.604e-05, x1 = 1.8e-06 | 0.0296 | 0.033
x2 = 4.307e-05, x1 = 1.8e-07 | 0.026 | 0.0276
x2 = 4.307e-05, x1 = 9e-07 | 0.0293 | 0.0306
x2 = 4.307e-05, x1 = 1.8e-06 | 0.0336 | 0.0375
x2 = 4.991e-05, x1 = 1.8e-07 | 0.0297 | 0.0315
x2 = 4.991e-05, x1 = 9e-07 | 0.0331 | 0.0346
x2 = 4.991e-05, x1 = 1.8e-06 | 0.0376 | 0.0417
x2 = 5.676e-05, x1 = 1.8e-07 | 0.0333 | 0.0355
x2 = 5.676e-05, x1 = 9e-07 | 0.0367 | 0.0386
x2 = 5.676e-05, x1 = 1.8e-06 | 0.0416 | 0.0458
x2 = 6.361e-05, x1 = 1.8e-07 | 0.037 | 0.0393
x2 = 6.361e-05, x1 = 9e-07 | 0.0404 | 0.0425
x2 = 6.361e-05, x1 = 1.8e-06 | 0.0455 | 0.0498
x2 = 7.027e-05, x1 = 1.8e-07 | 0.0405 | 0.043
x2 = 7.027e-05, x1 = 9e-07 | 0.0441 | 0.0464
x2 = 7.028e-05, x1 = 1.8e-06 | 0.0493 | 0.0537
x2 = 7.694e-05, x1 = 1.8e-07 | 0.044 | 0.0467
x2 = 7.694e-05, x1 = 9e-07 | 0.0477 | 0.0503
x2 = 7.694e-05, x1 = 1.8e-06 | 0.0529 | 0.0576
x2 = 8.361e-05, x1 = 1.8e-07 | 0.0473 | 0.0503
x2 = 8.361e-05, x1 = 9e-07 | 0.0513 | 0.0542
x2 = 8.361e-05, x1 = 1.8e-06 | 0.0564 | 0.0614
x2 = 9.009e-05, x1 = 1.8e-07 | 0.0507 | 0.0539
x2 = 9.009e-05, x1 = 9e-07 | 0.0547 | 0.058
x2 = 9.009e-05, x1 = 1.8e-06 | 0.0597 | 0.0651
x2 = 9.658e-05, x1 = 1.8e-07 | 0.054 | 0.0576
x2 = 9.658e-05, x1 = 9e-07 | 0.0581 | 0.0618
x2 = 9.658e-05, x1 = 1.8e-06 | 0.0627 | 0.0686
x2 = 0.0001031, x1 = 1.8e-07 | 0.0571 | 0.0611
x2 = 0.0001031, x1 = 9e-07 | 0.0612 | 0.0653
x2 = 0.0001031, x1 = 1.8e-06 | 0.0656 | 0.0721
x2 = 0.0001094, x1 = 1.8e-07 | 0.0601 | 0.0643
x2 = 0.0001094, x1 = 9e-07 | 0.0641 | 0.0687
x2 = 0.0001094, x1 = 1.8e-06 | 0.0684 | 0.0754
x2 = 0.0001157, x1 = 1.8e-07 | 0.0629 | 0.0676
x2 = 0.0001157, x1 = 9e-07 | 0.0668 | 0.0719
x2 = 0.0001157, x1 = 1.8e-06 | 0.071 | 0.0784
x2 = 0.000122, x1 = 1.8e-07 | 0.0658 | 0.0707
x2 = 0.000122, x1 = 9e-07 | 0.0696 | 0.075
x2 = 0.000122, x1 = 1.8e-06 | 0.0734 | 0.0813
x2 = 0.0001281, x1 = 1.8e-07 | 0.0684 | 0.0736
x2 = 0.0001281, x1 = 9e-07 | 0.0725 | 0.0777
x2 = 0.0001281, x1 = 1.8e-06 | 0.0755 | 0.0841
x2 = 0.0001342, x1 = 1.8e-07 | 0.0709 | 0.0764
x2 = 0.0001342, x1 = 9e-07 | 0.0746 | 0.0802
x2 = 0.0001342, x1 = 1.8e-06 | 0.0776 | 0.0868
x2 = 0.0001404, x1 = 1.8e-07 | 0.0732 | 0.079
x2 = 0.0001404, x1 = 9e-07 | 0.0766 | 0.0822
x2 = 0.0001404, x1 = 1.8e-06 | 0.0797 | 0.0894
x2 = 0.0001465, x1 = 1.8e-07 | 0.0752 | 0.0816
x2 = 0.0001465, x1 = 9e-07 | 0.0783 | 0.0841
x2 = 0.0001465, x1 = 1.8e-06 | 0.0817 | 0.0919
x2 = 0.0001524, x1 = 1.8e-07 | 0.077 | 0.0838
x2 = 0.0001524, x1 = 9e-07 | 0.08 | 0.086
x2 = 0.0001524, x1 = 1.8e-06 | 0.0836 | 0.0943
x2 = 0.0001584, x1 = 1.8e-07 | 0.0786 | 0.0858
x2 = 0.0001584, x1 = 9e-07 | 0.0816 | 0.0878
x2 = 0.0001584, x1 = 1.8e-06 | 0.0855 | 0.0962
x2 = 0.0001641, x1 = 1.8e-07 | 0.0802 | 0.0876
x2 = 0.0001641, x1 = 9e-07 | 0.0831 | 0.0895
x2 = 0.0001641, x1 = 1.8e-06 | 0.0874 | 0.0981
x2 = 0.0001699, x1 = 1.8e-07 | 0.0817 | 0.0893
x2 = 0.0001699, x1 = 9e-07 | 0.0846 | 0.0911
x2 = 0.0001699, x1 = 1.8e-06 | 0.0893 | 0.1
x2 = 0.0001757, x1 = 1.8e-07 | 0.083 | 0.0909
x2 = 0.0001757, x1 = 9e-07 | 0.086 | 0.0927
x2 = 0.0001757, x1 = 1.8e-06 | 0.091 | 0.102
x2 = 0.0001814, x1 = 1.8e-07 | 0.0843 | 0.0924
x2 = 0.0001814, x1 = 9e-07 | 0.0874 | 0.0943
x2 = 0.0001814, x1 = 1.8e-06 | 0.0928 | 0.104
x2 = 0.000187, x1 = 1.8e-07 | 0.0855 | 0.0939
x2 = 0.000187, x1 = 9e-07 | 0.0887 | 0.0957
x2 = 0.000187, x1 = 1.8e-06 | 0.0946 | 0.106
x2 = 0.0001928, x1 = 1.8e-07 | 0.0867 | 0.0952
x2 = 0.0001928, x1 = 9e-07 | 0.09 | 0.0974
x2 = 0.0001928, x1 = 1.8e-06 | 0.0964 | 0.107
x2 = 0.0001982, x1 = 1.8e-07 | 0.0879 | 0.0966
x2 = 0.0001982, x1 = 9e-07 | 0.0912 | 0.0991
x2 = 0.0001982, x1 = 1.8e-06 | 0.0982 | 0.109
x2 = 0.0002038, x1 = 1.8e-07 | 0.089 | 0.0979
x2 = 0.0002038, x1 = 9e-07 | 0.0924 | 0.101
x2 = 0.0002038, x1 = 1.8e-06 | 0.0997 | 0.111
x2 = 0.0002092, x1 = 1.8e-07 | 0.0901 | 0.0992
x2 = 0.0002092, x1 = 9e-07 | 0.0936 | 0.102
x2 = 0.0002092, x1 = 1.8e-06 | 0.101 | 0.112
x2 = 0.0002147, x1 = 1.8e-07 | 0.0913 | 0.1
x2 = 0.0002148, x1 = 9e-07 | 0.0949 | 0.104
x2 = 0.0002148, x1 = 1.8e-06 | 0.102 | 0.114
x2 = 0.00022, x1 = 1.8e-07 | 0.0925 | 0.102
x2 = 0.00022, x1 = 9e-07 | 0.0961 | 0.105
x2 = 0.00022, x1 = 1.8e-06 | 0.104 | 0.115
x2 = 0.0002254, x1 = 1.8e-07 | 0.0937 | 0.103
x2 = 0.0002254, x1 = 9e-07 | 0.0974 | 0.107
x2 = 0.0002254, x1 = 1.8e-06 | 0.105 | 0.116
x2 = 0.0002306, x1 = 1.8e-07 | 0.0949 | 0.104
x2 = 0.0002306, x1 = 9e-07 | 0.0986 | 0.108
x2 = 0.0002306, x1 = 1.8e-06 | 0.106 | 0.117
x2 = 0.0002358, x1 = 1.8e-07 | 0.0962 | 0.105
x2 = 0.0002358, x1 = 9e-07 | 0.0998 | 0.109
x2 = 0.0002358, x1 = 1.8e-06 | 0.107 | 0.119
x2 = 0.0002411, x1 = 1.8e-07 | 0.0973 | 0.106
x2 = 0.0002411, x1 = 9e-07 | 0.101 | 0.111
x2 = 0.0002411, x1 = 1.8e-06 | 0.108 | 0.12
